Experimental data: patent publication US12601743B2, “Methods for treating drug resistant cancers” (The Regents of the University of California, priority 2017, dated 2026)
“Also recorded” adds a separate entry of the source.

What was measured:
[1] = system: GBM14, GBM64 and GBM85 GSCs; assay: GSC cell viability (CELLTITER-GLO), Mayo Clinic models predicted Glut3 addicted; type: cell-based, human; conditions: Classical or Proneural, Glut3 addicted signature, FIG. 17B
Experimental: (§1) Cell viability assay. U87MG, LN229, and LN18 cells were seeded at 1K cells per well in black 96-well plates in DMEM medium (no glucose) with 10% dialyzed FBS±glucose (0-4.5 g/L). Cell viability was determined by Alamar Blue dye (Life Technologies) according to manufacturer's instructions. For GSCs, cells were seeded at 10K cells per well in white 96-well low attachment plates in GSC medium±glucose (0-4.5 g/L). Viable cell numbers were evaluated using a CELLTITER-GLO™ assay kit (Promega). Each condition consisted of, at least, three replicate wells and data were expressed as relative luciferase units or as the percentage of survival of control cells.

GBM150 and GBM59 GSCs = assay: GSC cell viability (CELLTITER-GLO), Mayo Clinic models with Glut3 non-addicted signature; type: cell-based, human; conditions: mesenchymal, FIG. 17B
Experimental: as §1

[2] = system: Ge738, GBM6, Ge970.2 and Ge885 GSCs; assay: GSC cell viability (CELLTITER-GLO), GSC with low β3/Glut3 expression; type: cell-based, human; conditions: GSC with low β3/Glut3 expression (Ge738, GBM6, Ge970.2, Ge885); FIG. 5D, 5H
Experimental: as §1

GBM26 and GBM12 GSCs = assay: GSC cell viability (CELLTITER-GLO), Mayo Clinic β3/Glut3-low models; type: cell-based, human; conditions: FIG. 17A-B
Experimental: as §1

Ge479 orthotopic tumors = assay: Orthotopic brain tumor xenograft survival, Ge479; type: in vivo, mice; conditions: Ge479 (Glut3 addicted); systemic treatment; FIG. 21
Experimental: Orthotopic brain tumor xenografts. Intracranial transplantation of U87MG or GSC (Ge518 and Ge479) into 6-8-week-old nu/nu nude immunocompromised mice (Charles River Labs) was performed in accordance with the UCSD Institutional Animal Care and Use Committee. U87MG cells bearing β3, Glut3 shRNA or shβ3 ectopically expressing Glut3 as well as shRNA control (15 mice per group) were orthotopically transplanted following washing and resuspension in PBS. Ge479 and Ge518 were orthotopically transplanted following washing and resuspension in DMEM/F12. Mice were treated with vehicle (PBS) or cilengitide (10 mg kg 1 or 30 mg kg 1; 8 mice per group) five days per week. Briefly, with a stereotaxic frame (Stoelting Co.), a small burr hole was made in the skull 2 mm anterior and 2 mm lateral to the bregma. A 31-gauge Hamilton needle/syringe was inserted 3 mm, and 0.25 μl/minute was dispensed (10^5 tumor cells in 2 μl media). A total of 1×10^5 and 3×10^5 cells in 2 μl was injected respectively for U87MG cells and GSCs respectively.

glioblastoma = conditions: GBM patients; phase III CENTRIC, phase II CORE (Stupp et al., 2014); cited from earlier work
[3] = system: YAP/TAZ expression in GBM cells; assay: YAP/TAZ expression after PAK4 inhibition (immunoblot); type: cell-based, human; conditions: FIG. 3H, FIG. 14C; U87MG, LN229
Experimental: Chemicals. Verteporfin (YAP inhibitor) was purchased from Sigma and used at the concentration of 0.5-10 μM for 24 hours. PF-03758309 (PAK4 inhibitor) was purchased from Chemietek and used at the concentration of 50 nM-1000 nM for 24 hours.
Immunoblotting. Proteins were extracted in RIPA buffer and quantified using the Pierce BCA kit (Thermo Fisher). 10-30 μg of protein was boiled in NuPage buffer (Thermo Fisher) and loaded onto a denaturing SDS-polyacrylamide gel (10%), transferred to PVDF membranes and blotted with anti-mouse or -rabbit HRP-conjugated secondary antibodies (Bio-Rad). The following antibodies were used for immunoblotting: β3 (Cell Signaling), Glut3 (Santa Cruz Biotechnology), YAP (Santa Cruz) YAP-XP (cell signaling), TAZ (Cell Signaling), PAK4 and pPAK4 (Cell Signaling), and Vinculin and β-actin (Sigma-Aldrich) as loading controls.

Row | SMILES | sensitivity (cell viability) [1] | sensitivity (cell viability) (GBM150 and GBM59 GSCs) | effect on cell viability [2] | effect on cell viability (GBM26 and GBM12 GSCs) | survival of mice bearing orthotopic tumors (Ge479 orthotopic tumors) | overall survival in clinical trials (glioblastoma) | YAP/TAZ expression [3]
1 | CC(C)[C@H]1C(=O)N[C@@H](CCCN=C(N)N)C(=O)NCC(=O)N[C@@H](CC(=O)O)C(=O)N[C@H](Cc2ccccc2)C(=O)N1C [cilengitide, 2-[(2S,5R,8S,11S)-5-benzyl-11-{3-[(diaminomethylidene)amino]propyl}-7-methyl-3,6,9,12,15-pentaoxo-8-(propan-2-yl)-1,4,7,10,13-pentaazacyclopentadecan-2-yl]acetic acid] | largely sensitive; also recorded: sensitivity to integrin blockade | largely resistant; also recorded: not affected | moderate enhancement of viability | no effect or a moderate enhancement of viability | dramatically prolongs the survival | failed to meet overall survival endpoints; also recorded: failed to produce a significant overall survival benefit | 
2 | Cc1nc(Nc2n[nH]c3c2CN(C(=O)N[C@H](CN(C)C)c2ccccc2)C3(C)C)c2sccc2n1 [PF-03758309] |  |  |  |  |  |  | decrease of YAP/TAZ expression
